Measurements: PMC6199279, “Design of Peptoid-peptide Macrocycles to Inhibit the β-catenin TCF Interaction in Prostate Cancer” (Nature Communications, 2018)
Where two headings read alike, the source gives them in different places. Numbered stars: 1 amine (or outer) side, 2 acyl side, 3 side chain; on linkers, the order of the positions; unused ones are H or OH. Square brackets hold non-standard residues; d marks the D form. Peptide text beside a SMILES is read from it. N(2-(2-PhOPh)Et)Gly = O=C(O)CNCCc1ccccc1Oc1ccccc1; Gly(N-3,5-(OMe)2-Ph) = COc1cc(NCC(=O)O)cc(OC)c1; X1 = COc1ccc([C@H](C)N(CC(=O)[*:2])[*:1])cc1; N((CH2)3OiPr)Gly = CC(C)OCCCNCC(=O)O

Assays:
[1] = test system: Wnt signaling in zebrafish embryos; conditions: zebrafish, in vivo
Description: To evaluate the efficacy of 13 in vivo, we utilized a Danio rerio (zebrafish) model. […] To test this, BIO was added to zebrafish embryos at 6 hpf with and without 13 as described in Fig. 6a.
The zebrafish phenotypic assay was conducted using wild-type zebrafish embryos seeded into a 96-well round bottom plate at 4 hpf in 50 µl of Fish Water (60 mg/l sea salt, Instant Ocean, Blacksburg, VA, USA) supplemented with 1 mg per L Methylene Blue (Sigma-Aldrich). The embryos were not dechorionated. At 50% epiboly, roughly 5.5 hpf, 50 µl of 30 µM 13 or Linear 13 was added. About 30 min later at shield stage, 50 µl of 6 nM (3×) BIO was added. The embryos were then visualized for the presence of eyes and imaged at 30 hpf. Zebrafish embryos were randomly assigned to non-blinded treatment groups, none were excluded. Sample size was determined with a power calculation to achieve statistical significance (alpha = 0.05, beta = 0.2) if only 60% of the fish had developed eyes.

[2] = test system: U2OS (osteosarcoma) cells; assay: 2D proliferation (CellTiter-Fluor viability), U2OS; format: cell-based; conditions: Wnt-independent cell line, 5 days
LNCaP-abl spheroids = test system: LNCaP-abl spheroids
Description: To evaluate the impact of the compounds under 3D cell culture conditions thought to be more representative of tumors, we grew LNCaP-abl cells in low attachment plates. The effects on spheroid formation and growth were evaluated following treatment with vehicle, 13, or linear 13 administered at the time of seeding at low cell density in a 384-well plate. In a separate experiment, to test the impact on pre-formed spheroids, cells were treated 5 days after initial seeding. Spheroids from both experiments were grown for 22 days, with compound refreshed on days 5, 9, 13, 16, and 20. […] PrestoBlue was used to measure cell viability on day 22 (Fig. 5b). […] Figure 5c–f depicts spheroid area over time based on size measurements from the images taken throughout the experiment.
Scale bar represents 400 μm. b End point viability measurements taken on day 22 using PrestoBlue. c–f Time course of spheroid areas calculated from images taken throughout the experiment.
LNCaP-abl cells were seeded into 384-well ultra-low attachment plates (Corning), 1000 cells/well. Varying concentrations of compound were added either on the same day as seeding or on day 5. Media was changed every 3–4 days using a Biotek automated media exchanger. Images were taken using an ArraySca VTI (Cellomics) on days 5, 9, 13, 16, 20, and 22. Images were analyzed for spheroid area with the HCS Studio Cellomics Scan Version 6.6.0 (Thermo) software. A final viability measurement was taken on day 22 using PrestoBlue reagent (Thermo).

[3] = test system: LNCaP-abl and LNCaP-95 cells; assay: RT-qPCR of Wnt and AR target genes; format: cell-based; conditions: 10 µM, 24 h
Description: To test the effect of 13 in a model of prostate cancer, we used the LNCaP-abl and LNCaP-95 cell lines. These cell lines were derived from androgen-sensitive LNCaP cells, and passaged in androgen-deprived media to mimic the development of castration resistance in patient tumors[54],[55]. We first isolated mRNA from LNCaP-abl and LNCaP-95 cells treated with vehicle, 10 µM 13 and linear 13 for 24 h to check the expression of endogenous Wnt and AR target genes (Fig. 4a). […] AR-V7 is particularly challenging to target as most AR antagonists target the ligand binding domain. […] To check if the changes in Wnt and AR target gene expression translated into effects on growth, the viability of LNCaP-abl and LNCaP-95 cells was determined after 5 days of treatment (Fig. 4b).
Data are presented as mean and SD (n = 3) of three independent experiments (a) or representative of three independent experiments (b, c).
LNCaP-abl and LNCaP-95 cells were cultured in indicator free RPMI 1640 media (Life) supplemented with 10% charcoal stripped FBS, 1% pennicillin/streptomycin, and 1% L-Glutamine. HEK-293 Cells were cultured in DMEM media (Life) supplemented with 10%FBS and 1% pennicillin/streptomycin. A549 and U2OS cells were cultured in RPMI 1640 media (Life) and McCoy’s 5 A modified media (Life), respectively, both supplemented with 10%FBS and 1% pennicillin/streptomycin. LNCaP-abl, and LNCaP-95 cell lines were generous gifts from Z. Culig (Innsbruck Medical University, Austria) and J. Isaacs (Johns Hopkins University, Baltimore, MD), respectively. Cell lines were authenticated by STR profiling (Genetica Cell Line Testing; Burlington, NC). A549 and U2OS were purchased from ATCC (product numbers CCL-185 and HTB-96). Cell lines were routinely screened for mycoplasma. Luciferase assays were conducted using stably transfected TOP-flash and 3xARE LNCaP-abl cell lines. For the Wnt pathway, TOP-Flash LNCaP-abl cells were treated with 1 nM siAPC (a 1:1:1 mix of Ambion Silencer Silect siAPC RNA, ID#s s1433, s1434, s1435) for 24 h and seeded into 384-well plates at 5000 cells/well, followed by 24 h of treatment with compound. For the AR-pathway, 3xARE LNCaP-abl cells were seeded into 384-well plates at 5000 cells per well, treated for 48 h with compound, with the addition of R1881 for the final 8 h. Both were measured using the ONE-Glo detection kit (Promega) and data is standardized to CellTiter-Fluor (Promega) viability readings to account for potential variations in well to well cell number. Control Wnt inhibitors were purchased from Sigma with the exception of PRI-724 which was purchased from Selleckchem. Co-immunoprecipitation was carried out using HEK293 cells transfected with either myc-TCF (addgene #32738) or myc-TCF dominant negative (addgene #32739) followed by 48 h of treatment with compound. Cells were lysed using Triton lysis buffer and 1 mg total protein was incubated overnight at 4 C with 40 µl anti-cMyc magnetic beads (Thermo). Total protein concentration in cell lysates were determined using Pierce Rapid Gold BCA Protein Assay Kit (Thermo). The beads were washed 3× with lysis buffer then boiled in 2X sample loading dye.

Structure (SMILES): COc1ccc([C@H](C)N2CC(=O)N[C@H](C)C(=O)N(CCc3ccccc3Oc3ccccc3)CC(=O)N(c3cc(OC)cc(OC)c3)CC(=O)N(CCCOC(C)C)CC(=O)N([C@@H](C)c3ccc(OC)cc3)CC2=O)cc1 [Compound 13] (cyclo([dA][N(2-(2-PhOPh)Et)Gly][Gly(N-3,5-(OMe)2-Ph)][N((CH2)3OiPr)Gly][X1][X1]))
- Harm to embryo development [1]: does not otherwise harm embryo development
- Effect on proliferation of U2OS cells [2]: no effect
- Spheroid growth, compound added day 0 (LNCaP-abl spheroids; 0.5 µM): slowed growth
- Spheroid formation, compound added day 0 (LNCaP-abl spheroids; 20 µM, 10 µM, 5 µM, 2 µM and 1 µM): prevented spheroid formation
- Growth of pre-formed spheroids, treatment started day 5 (LNCaP-abl spheroids; at or above 2 µM): stalled the growth of pre-formed spheroids
- Spheroid growth, low concentrations (LNCaP-abl spheroids; between 0.001 µM and 0.1 µM): little effect
- IC50 (LNCaP-abl spheroids; read-out: IC50 spheroid proliferation, treatment started Day 0, PrestoBlue viability on day 22, compound added at seeding): 694 nM
- IC50 (LNCaP-abl spheroids; read-out: IC50 spheroid proliferation, treatment started Day 5, PrestoBlue viability on day 22, pre-formed spheroids): 1340 nM
- AR mRNA [3]: decreased
- AR-V7 transcription [3]: decreased
- Cyclin D1 mRNA [3]: decreased
- E-cadherin transcription [3]: increased
- FKBP5 mRNA [3]: decreased
- PSA mRNA [3]: decreased
- cMYC mRNA [3]: decreased
